This is an account of results in patent US7727980B2, “Tricyclic androgen receptor modulator compounds and methods” (priority 2001, dated 2010).

Experiment [1] addresses T1, human AR (Homo sapiens, UniProt P10275).
T1 sequence (P10275 1-920): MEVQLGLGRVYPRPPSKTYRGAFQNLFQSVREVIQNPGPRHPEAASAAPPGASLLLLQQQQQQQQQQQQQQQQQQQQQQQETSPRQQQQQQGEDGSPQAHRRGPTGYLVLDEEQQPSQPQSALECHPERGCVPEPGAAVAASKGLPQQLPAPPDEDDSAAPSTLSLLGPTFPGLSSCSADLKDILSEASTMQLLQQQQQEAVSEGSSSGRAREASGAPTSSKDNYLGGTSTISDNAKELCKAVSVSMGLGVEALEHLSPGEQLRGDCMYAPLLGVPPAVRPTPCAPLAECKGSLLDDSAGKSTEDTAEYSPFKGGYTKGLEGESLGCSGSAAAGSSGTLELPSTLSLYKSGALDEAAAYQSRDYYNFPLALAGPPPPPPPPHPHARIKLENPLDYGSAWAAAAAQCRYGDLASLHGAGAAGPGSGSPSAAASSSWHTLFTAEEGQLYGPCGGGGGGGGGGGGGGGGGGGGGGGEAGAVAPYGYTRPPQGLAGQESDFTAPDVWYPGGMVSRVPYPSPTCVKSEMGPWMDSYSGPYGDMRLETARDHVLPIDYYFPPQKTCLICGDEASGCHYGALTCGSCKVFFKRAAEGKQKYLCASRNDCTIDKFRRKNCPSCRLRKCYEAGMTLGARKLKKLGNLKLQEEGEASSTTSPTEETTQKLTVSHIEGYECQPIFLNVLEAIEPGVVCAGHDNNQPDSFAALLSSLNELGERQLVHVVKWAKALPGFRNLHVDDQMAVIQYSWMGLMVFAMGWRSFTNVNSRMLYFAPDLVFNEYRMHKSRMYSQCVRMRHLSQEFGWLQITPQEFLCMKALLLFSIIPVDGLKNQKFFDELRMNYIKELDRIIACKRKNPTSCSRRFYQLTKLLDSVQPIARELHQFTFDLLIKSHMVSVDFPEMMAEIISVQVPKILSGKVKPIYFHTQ
In words: Co-transfection assay, AR agonist activity, CV-1 cells. The settings on record: for EC50: AR Agonist CV-1 Cells Potency (nM), agonist potency or EC50; for AR Agonist CV-1 Cells Efficacy (%): percent maximal response relative to reference agonist DHT. In kind it is cell-based. Also noted: expressed in transfected cells; host or cells: CV-1 cells (African green monkey kidney fibroblasts), transient transfection with pRShAR. An excerpt: (§1) The co-transfection assay provides a method for identifying functional agonists and partial agonists which mimic, or antagonists which inhibit, the effect of native hormones and quantifying their activity for responsive IR proteins. In this regard, the co-transfection assay mimics an in vivo system in the laboratory. Importantly, activity in the co-transfection assay correlates very well with known in vivo activity, such that the co-transfection assay functions as a qualitative and quantitative predictor of a tested compounds in vivo pharmacology. See, e.g., T. Berger et al. 41 J. Steroid Biochem. Molec.
(§2) In the co-transfection assay, a cloned cDNA for an IR (e.g., human PR, AR or GR) under the control of a constitutive promoter (e.g., the SV 40 promoter) is introduced by transfection (a procedure to induce cells to take up foreign genes) into a background cell substantially devoid of endogenous IRs. This introduced gene directs the recipient cells to make the IR protein of interest. A second gene is also introduced (co-transfected) into the same cells in conjunction with the IR gene. This second gene, comprising the cDNA for a reporter protein, such as firefly luciferase (LUC), controlled by an appropriate hormone responsive promoter containing a hormone response element (HRE). This reporter plasmid functions as a reporter for the transcription-modulating activity of the target IR. Thus, the reporter acts as a surrogate for the products (mRNA then protein) normally expressed by a gene under control of the target receptor and its native hormone.
(§3) The co-transfection assay can detect small molecule agonists or antagonists of target IRs. Exposing the transfected cells to an agonist ligand compound increases reporter activity in the transfected cells. This activity can be conveniently measured, e.g., by increasing luciferase production, which reflects compound-dependent, IR-mediated increases in reporter transcription. […] To detect antagonists, the co-transfection assay is carried out in the presence of a constant concentration of an agonist to the target IR (e.g., progesterone for PR) known to induce a defined reporter signal. Increasing concentrations of a suspected antagonist will decrease the reporter signal (e.g., luciferase production). The co-transfection assay is therefore useful to detect both agonists and antagonists of specific IRs. Furthermore, it determines not only whether a compound interacts with a particular IR, but whether this interaction mimics (agonizes) or blocks (antagonizes) the effects of the native regulatory molecules on target gene expression, as well as the specificity and strength of this interaction.
(§4) CV-1 cells (African green monkey kidney fibroblasts) were cultured in the presence of Dulbecco's Modified Eagle Medium (DMEM) supplemented with 10% charcoal resin-stripped fetal bovine serum then transferred to 96-well microtiter plates one day prior to transfection.
(§5) The reporter plasmid, MTV-LUC, contains the cDNA for firefly luciferase (LUC) under control of the mouse mammary tumor virus (MTV) long terminal repeat, a conditional promoter containing an androgen response element. See e.g., Berger et al. supra. In addition, pRS-β-Gal, coding for constitutive expression of E. coli β-galactosidase (β-Gal), was included as an internal control for evaluation of transfection efficiency and compound toxicity.
(§6) Six hours after transfection, media was removed and the cells were washed with phosphate-buffered saline (PBS). […] Three to four replicates were used for each sample. Transfections and subsequent procedures were performed on a Biomek 1000 automated laboratory work station.
(§7) After 40 hours, the cells were washed with PBS, lysed with a Triton X-100-based buffer and assayed for LUC and β-Gal activities using a luminometer or spectrophotometer, respectively. For each replicate, the normalized response (NR) was calculated as: LUC response/β-Gal rate • where β-Gal rate=β-Gal·1×10^−5/β-Gal incubation time.

For experiment [2], the target named is T1, human AR. In words: Co-transfection assay, AR antagonist activity in presence of DHT, CV-1 cells. In kind it is cell-based. Details: expressed in transfected cells; host or cells: CV-1 cells (African green monkey kidney fibroblasts), transient transfection with pRShAR. The settings on record: CV-1 cells; for IC50: AR Antagonist CV-1 Cells Potency (nM), antagonist potency or IC50, DHT at its EC50 concentration; for AR Antagonist CV-1 Cells Efficacy (%): percent maximal inhibition, DHT at its EC50 concentration.
Source text: as §1, §2, §3, §4, §5, §6, §7

In experiment [3] the target is T1, human AR. In words: AR whole cell competitive binding assay (3H-DHT), transfected COS-1 cells. Details: expressed in transfected cells; transient transfection with pRShAR. The settings on record: AR Binding Ki (nM), COS-1 cells, 1 nM 3H-DHT, Cheng-Prusoff from IC50. On the procedure:
AR Binding: For the whole cell binding assay, COS-1 cells in 96-well microtiter plates containing DMEM-10% FBS were transfected as described above with the following plasmid DNA: pRShAR (2 ng/well), pRS-β-Gal (50 ng/well) and pGEM (48 ng/well). Six hours after transfection, media was removed, the cells were washed with PBS and fresh media was added. The next day, the media was changed to DMEM-serum free to remove any endogenous ligand that might be complexed with the receptor in the cells.
Three replicates were used for each sample. […] The remaining media was removed, the cells were washed three times with PBS to remove unbound ligand and cells were lysed with a Triton X-100-based buffer.
For the saturation analyses, the difference between the total binding and the nonspecific binding, normalized by the β-Gal rate, was defined as specific binding. […] The Ki values were determined by application of the Cheng-Prusoff equation to the IC50 values, where: […]
After correcting for non-specific binding, IC50 values were determined. […] The IC50 value was determined graphically from a log-logit plot of the data. The Ki values were determined by application of the Cheng-Prusoff equation to the IC50 values, the labeled ligand concentration and the Kd of the labeled ligand.

One may read the EC50 as the concentration giving half of the maximal effect. For orientation: IC50 means the midpoint of a concentration-inhibition curve. As a reminder, the Ki is a measure of affinity in units of concentration, obtained from inhibition or displacement. On to `O=c1cc(C(F)(F)F)c2cc3c(cc2[nH]1)C1CCCC1N3CC(F)(F)F` (racemic) [Compound 120, (±)-6,6a,7,8,9,9a(cis)-Hexahydro-6-(2,2,2-trifluoroethyl)-4-trifluoromethylcyclopentano-[i]pyrrolo[2,3-g]quinolin-2(1H)-one], for which, at human AR [1], the EC50 came to 4.5 nM and the “AR Agonist CV-1 Cells Efficacy (%)” value was found to be 117%. Besides, on human AR [2], the 50% inhibitory concentration (IC50) is > 10000 nM; the “AR Antagonist CV-1 Cells Efficacy (%)” value was “na (na = not active (i.e. efficacy of <20 and potency of >10,000))”. Moreover, at human AR [3], the affinity, expressed as Ki, was 12 nM.
On to `CCN1c2ccc3[nH]c(=O)cc(C(F)(F)F)c3c2C2CCCC21` (racemic) [Compound 121, (±)-4c,5,6,7,7a(cis),8-Hexahydro-8-ethyl-4-trifluoromethylcyclopentano-[g]pyrrolo[3,2-f]quinolin-2(1H)-one], for which, at human AR [1], the EC50 is 43 nM and the “AR Agonist CV-1 Cells Efficacy (%)” value is recorded as 97%. Besides, at human AR [2], the IC50 is > 10000 nM; the “AR Antagonist CV-1 Cells Efficacy (%)” value was “na (na = not active (i.e. efficacy of <20 and potency of >10,000))”. The compound also gave an inhibitory constant (Ki) at human AR [3] of 7.6 nM.
In the case of `CCN1c2cc3c(C(F)(F)F)cc(=O)[nH]c3cc2C2CCCC21` (racemic) [Compound 122, (±)-6,6a 7,8,9,9a(cis)-Hexahydro-6-ethyl-4-trifluoromethylcyclopentano-[i]pyrrolo[2,3-g]quinolin-2(1H)-one], at human AR [1], the concentration for a half-maximal effect (EC50) was 34 nM and the “AR Agonist CV-1 Cells Efficacy (%)” value came to 59%. At human AR [2], the IC50 was > 10000 nM; the “AR Antagonist CV-1 Cells Efficacy (%)” value was “na (na = not active (i.e. efficacy of <20 and potency of >10,000))”. This compound also gave a Ki on human AR [3] of 21 nM.
On to `CC1c2c(ccc3[nH]c(=O)cc(C(F)(F)F)c23)N(CC(F)(F)F)C1C` (racemic) [Compound 123, (±)-5,6-Dihydro-5,6-cis-dimethyl-7-(2,2,2-trifluoroethyl)-4-trifluoromethyl-7H-pyrrolo[3,2-f]quinolin-2(1H)-one], for which, at human AR [1], it took 1.4 nM to reach a half-maximal effect (EC50) and the “AR Agonist CV-1 Cells Efficacy (%)” value was 104%. For the same compound, at human AR [2], the concentration for half-maximal inhibition (IC50) is > 10000 nM; the “AR Antagonist CV-1 Cells Efficacy (%)” value was “na (na = not active (i.e. efficacy of <20 and potency of >10,000))”. This compound also gave a Ki on human AR [3] of 14 nM.
With `CCCN1c2ccc3[nH]c(=O)cc(C(F)(F)F)c3c2C2CCCC21` (racemic) [Compound 125, (±)-4c,5,6,7,7a(cis),8-Hexahydro-8-propyl-4-trifluoromethylcyclopentano-[g]pyrrolo-[3,2-f]quinolin-2(1H)-one], on human AR [1], the EC50 worked out at 38 nM and the “AR Agonist CV-1 Cells Efficacy (%)” value was determined as 121%. Besides, on human AR [2], the 50% inhibitory concentration (IC50) is > 10000 nM; the “AR Antagonist CV-1 Cells Efficacy (%)” value is “na (na = not active (i.e. efficacy of <20 and potency of >10,000))”. In addition, at human AR [3], the inhibition constant (Ki) is 1.3 nM.
`O=c1cc(C(F)(F)F)c2c3c(ccc2[nH]1)N(Cc1ccoc1)C1CCCC31` (racemic) [Compound 126, (±)-4c,5,6,7,7a(cis),8-Hexahydro-8-(3-furanylmethyl)-4-trifluoromethyl-cyclopentano[g]pyrrolo[3,2-f]quinolin-2(1H)-one]: on human AR [1], the “AR Agonist CV-1 Cells Efficacy (%)” value is given as 53%. Besides, at human AR [2], the IC50 is > 10000 nM; the “AR Antagonist CV-1 Cells Efficacy (%)” value is “na (na = not active (i.e. efficacy of <20 and potency of >10,000))”. The compound also yielded a Ki on human AR [3] of 2.3 nM.
Take `O=c1cc(C(F)(F)F)c2c3c(ccc2[nH]1)N(Cc1ccsc1)C1CCCC31` (racemic) [Compound 127, (±)-4c,5,6,7,7a(cis),8-Hexahydro-8-(3-thiophenemethyl)-4-trifluoromethyl-cyclopentano[g]pyrrolo[3,2-f]quinolin-2(1H)-one]: at human AR [1], the midpoint of the response, the EC50, lay at 25 nM and the “AR Agonist CV-1 Cells Efficacy (%)” value came to 66%. In addition, on human AR [2], the IC50 is > 10000 nM; the “AR Antagonist CV-1 Cells Efficacy (%)” value is “na (na = not active (i.e. efficacy of <20 and potency of >10,000))”. Affinity on human AR [3] was put at a Ki of 6.3 nM.
On to `O=c1cc(C(F)(F)F)c2c3c(ccc2[nH]1)N(CC(F)(F)Cl)C1CCCC31` (racemic) [Compound 129, (±)-4c,5,6,7,7a(cis),8-Hexahydro-8-(2,2,2-chlorodifluoroethyl)-4-trifluoromethylcyclopentano[g]pyrrolo[3,2-f]quinolin-2(1H)-one], for which, on human AR [1], the 50% effective concentration (EC50) was 1.6 nM and the “AR Agonist CV-1 Cells Efficacy (%)” value came to 79%. On human AR [2], the 50% inhibitory concentration (IC50) is > 10000 nM; the “AR Antagonist CV-1 Cells Efficacy (%)” value is “na (na = not active (i.e. efficacy of <20 and potency of >10,000))”. Moreover, on human AR [3], the inhibition constant (Ki) was determined as 3.2 nM.
